Experimental findings from patent US20230105693A1, “ANTIMICROBIAL COMPOSITIONS” (Firmenich SA, priority 2020, published 2023) are described below.

SMILES strings stand for the structures. Where two headings read alike, the source gives them in different places. A value given as a limit tells only on which side of the number the result lay.

One data set deals with E. coli ATCC 10536. The data set can be described thus: Bacterial contact time (BCT) test of perfume ingredients in 20% ethanol solution (EN-1276 based). It is filed as cell-based, Escherichia coli. As to conditions: 20% EtOH, 45 s. On the procedure:
Bacterial suspensions of E. coli ATCC 10536 were prepared for antimicrobial testing as follows. Stock cultures stored at -80° C. were sub-cultured onto Tryptic Soy Agar (TSA) plate, and incubated at 37° C. for 24 h to obtain single colonies. Single colonies of the primary cultures were streaked onto TSA plates and incubated at 37° C. for 24 h to prepare the secondary cultures. Single colonies of secondary cultures were inoculated into 50 mL of Tryptic Soy broth (TSB), incubated at 37° C. 180 rpm for 18 h. Aliquots (0.5 ml) of the 18 h culture were inoculated into 50 ml of fresh TSB, and incubated at 37° C. 180 rpm for 2- 3 hours. When the OD600 nm value of the broth reached 1-2, cells were harvested by centrifugation at 5,000 rpm for 10 min, and then resuspended in the same fresh broth media to achieve the target level of 1-5 × 10^8 colony forming unit (CFU)/mL. This suspension was used for further antimicrobial tests.
Unless indicated otherwise, log reduction testing according to the present invention is determined in accordance with the following method.
Bacterial contact time (BCT) test based on European standard EN-1276 was used to determine dose dependent bactericidal activity of perfume ingredients in 20% ethanol solutions.
Perfume ingredients of various concentrations (doses) were prepared in 40% ethanol solutions. Eleven replicates of each sample were added into 96-well microtiter plates (120 µl per well) in column 1-11 of one row, with row B as the control sample of the ethanol solution. Then, 120 µl of cell suspension at a concentration of approximately 1-5 × 10^8 CFU/ML (as prepared above) were added to each well of the microtiter plate. A specified contact time (45 s) was allowed for target bacterial strains. At the end of the contact time, serial dilutions were prepared in 96 well plates with growth media: 3 times of 1 in 10 dilutions and followed by 17 times of 1 in 2 dilutions. Each plate was sealed and incubated at 37° C. under agitation (180 rpm). After incubation, turbidity of the wells (OD 600 nm) was recorded by Tecan microplate reader. Turbid cells were regarded as positive growth of viable cells. The total number of viable cells (log CFU/mL) for each sample was calculated. And the log reduction for each test composition at the final concentration (dose) was calculated against the control sample of the 20% ethanol solution.
Table 20 show the bactericidal dose related effect (log reduction) and calculated effect fraction of the Mixture C and compositions against E. coli ATCC 10536. Stock of compositions were prepared in 100% ethanol, then diluted in MilliQ water to obtain 2 × final concentration in 40% ethanol. BCT tests were conducted on samples against E. coli for a contact time of 45 s.

Data set [1] can be described thus: Equivalent alkane carbon number (EACN) in model microemulsion system. The conditions noted are these: C10E5/water/isopropyl myristate model system, 3% wt perfume ingredient. The class given is physicochemical.
A further data set can be described thus: physchem. The class given is physicochemical. On the procedure:
The partition coefficient (P) is defined as the ratio of the concentrations (C) to the equilibrium of a dissolved and highly diluted substance in a biphasic system consisting of two almost immiscible solvents.
In the case of n-octanol and water:
The partition coefficient P is the quotient of two concentrations, it is generally indicated in its logarithmic form, base 10 (LogP).
The log P values of different perfume ingredients were measured using standard high performance liquid chromatography method, according to the reference (OECD, guideline No. 117, adopted on 13 Apr. 2004, Partition coefficient (n-octanol-water), High Performance Liquid Chromatography (HPLC) Method).

The test system of data set [2] is Escherichia coli ATCC 10536. The data set can be described thus: Robotic BCT test of perfume ingredients in model surfactant bases. The class given is cell-based. The conditions noted are these: for log reduction at 0.5 %: Escherichia coli, ATCC10536, 45 s, read-out: Log reduction in Base 1 (Log CFU/mL).
Where [3] appears, read: model base 1, table by functional group.

Take `Cc1ccc(C(C)C)cc1O` [5-isopropyl-2-methylphenol]: the Effect fraction in the data set with E. coli ATCC 10536 (dose 0.030% w/v) was 0.090; with E. coli ATCC 10536 (dose 0.035% w/v), 0.250; with E. coli ATCC 10536 (dose 0.040% w/v), 0.610; in the data set with E. coli ATCC 10536 (dose 0.045% w/v), 0.830; in the data set on E. coli ATCC 10536 (dose 0.050% w/v), 0.970. The Log reduction was 0.660 with E. coli ATCC 10536 (dose 0.030% w/v); 1.812 in the data set on E. coli ATCC 10536 (dose 0.035% w/v); 4.379 in the data set on E. coli ATCC 10536 (dose 0.040% w/v); 5.960 in the data set with E. coli ATCC 10536 (dose 0.045% w/v); 6.960 in the data set with E. coli ATCC 10536 (dose 0.050% w/v). Also, the EACN in data set [1] is recorded as -43.89. For the same molecule, the chromatographic logP in the data set “physchem” (n-octanol/water, HPLC method, read-out: Log P) is 2.52. For the same molecule, the log reduction at 0.5 % in data set [2] amounted to 5.3. For the same molecule, the “Log reduction in Base 1 (Log CFU/mL)” value in data set [2] (setting [3]) is 5.3 Log CFU/mL.
`Cc1ccc(C(C)C)c(O)c1` [2-isopropyl-5-methylphenol]: the Effect fraction in the data set with E. coli ATCC 10536 (dose 0.025% w/v) stood at 0.120; in the data set with E. coli ATCC 10536 (dose 0.030% w/v), 0.300; in the data set on E. coli ATCC 10536 (dose 0.035% w/v) it was 0.470; in the data set with E. coli ATCC 10536 (dose 0.040% w/v), 0.690; in the data set with E. coli ATCC 10536 (dose 0.045% w/v), 0.890. For the same molecule, the Log reduction in the data set with E. coli ATCC 10536 (dose 0.025% w/v) came to 0.887; in the data set with E. coli ATCC 10536 (dose 0.030% w/v), 2.140; in the data set on E. coli ATCC 10536 (dose 0.035% w/v), 3.344; with E. coli ATCC 10536 (dose 0.040% w/v), 4.987; in the data set with E. coli ATCC 10536 (dose 0.045% w/v), 6.387. Also, in data set [1], the EACN is recorded as -43.68. Moreover, the chromatographic logP in the data set “physchem” came out at 2.57. The log reduction at 0.5 % in data set [2] (0.5% perfume ingredient, Base 1: SLES 1.875%, CAPB 0.625%, contact 45 s) was greater than 5.5; in data set [2] (setting [3]) it was greater than 5.5.
